This is an account of results in patent publication US20080153862A1, “SPIROPIPERIDINE DERIVATIVES” (priority 2006, published 2008).

For this assay, the target named is T1, human V1a receptor (Homo sapiens, UniProt P37288).
T1 construct: expressed in transfected cells; host or cells: HEK293 cells, transiently transfected; membrane preparation
T1 sequence (P37288 whole entry): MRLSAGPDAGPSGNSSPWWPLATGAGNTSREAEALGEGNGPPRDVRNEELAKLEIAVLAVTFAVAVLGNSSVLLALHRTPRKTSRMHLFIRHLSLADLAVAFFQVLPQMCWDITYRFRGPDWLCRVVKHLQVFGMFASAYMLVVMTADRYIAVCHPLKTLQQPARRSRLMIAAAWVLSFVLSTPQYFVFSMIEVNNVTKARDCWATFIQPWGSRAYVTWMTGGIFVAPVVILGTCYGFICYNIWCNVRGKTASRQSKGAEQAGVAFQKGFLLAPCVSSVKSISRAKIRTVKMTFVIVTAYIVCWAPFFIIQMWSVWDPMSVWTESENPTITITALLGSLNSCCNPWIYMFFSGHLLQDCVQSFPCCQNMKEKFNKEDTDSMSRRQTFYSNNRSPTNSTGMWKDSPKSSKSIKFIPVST
Kind of assay: V1a activity: human V1a receptor binding (3H-Vasopressin SPA, HEK293 membranes). The settings on record: membranes of HEK293 cells transiently transfected with human V1a receptor, Ki by Cheng-Prussoff equation, read-out: pKi hV1a (converted). The procedure:
The human V1a receptor was cloned by RT-PCR from total human liver RNA. The coding sequence was subcloned in an expression vector after sequencing to confirm the identity of the amplified sequence. […] Cell membranes were prepared from HEK293 cells transiently transfected with the expression vector and grown in 20 liter fermenters with the following protocol.
50 g of cells were resuspended in 30 ml freshly prepared ice cold Lysis buffer (50 mM HEPES, 1 mM EDTA, 10 mM MgCl2 adjusted to pH=7.4+complete cocktail of protease inhibitor (Roche Diagnostics)); homogenized with Polytron for 1 min; and sonicated on ice for 2×2 minutes at 80% intensity (Vibracell sonicator). The preparation was centrifuged 20 min at 500 g at 4° C., the pellet was discarded and the supernatant centrifuged 1 hour at 43′000 g at 4° C. (19′000 rpm). The pellet was resuspended in 12.5 ml Lysis buffer+12.5 ml Sucrose 20% and homogenized using a Polytron for 1-2 min. The protein concentration was determined by the Bradford method, and aliquots were stored at −80° C. until use. For binding studies 60 mg Yttrium silicate SPA beads (Amersham) were mixed with an aliquot of membrane in binding buffer (50 mM Tris, 120 mM NaCl, 5 mM KCl, 2 mM CaCl2, 10 mM MgCl2) for 15 minutes with mixing. 50 ul of bead/membrane mixture was then added to each well of a 96 well plate, followed by 50 ul of 4 nM 3H-Vasopressin (American Radiolabeled Chemicals). For total binding measurement 100 ul of binding buffer were added to the respective wells, for non-specific binding 100 ul of 8.4 mM cold vasopressin and for compound testing 100 ul of a serial dilution of each compound in 2% DMSO. The plate was incubated 1 h at room temperature, centrifuged 1 min at 1000 g and counted on a Packard Top-Count. Non-specific binding counts were subtracted from each well and data was normalized to the maximum specific binding set at 100%. To calculate an IC 50 the curve was fitted using a non-linear regression model (XLfit), and the Ki was calculated using the Cheng-Prussoff equation.
Consider `COc1ccc2c(c1)C1(CCN(C(=O)c3ccc4ccccc4c3)CC1)OC2=O` [Example 1, 6-Methoxy-1′-(2-naphthoyl)-3H-spiro[2-benzofuran-1,4′-piperidin]-3-one], for which the Ki was 8.32 nM.

As for `O=C1OC2(CCN(C(=O)c3ccc(Cl)c(Cl)c3)CC2)c2ccccc21` [Example 6, 1′-(3,4-Dichlorobenzoyl)-3H-spiro[2-benzofuran-1,4′-piperidin]-3-one], the Ki was 19.1 nM.

Regarding `COc1ccc2c(c1)C1(CCN(C(=O)c3ccc(Cl)c(Cl)c3)CC1)OC2=O` [Example 7, 1′-(3,4-Dichlorobenzoyl)-6-methoxy-3H-spiro[2-benzofuran-1,4′-piperidin]-3-one], the Ki is 28.8 nM.

For the molecule `COc1ccc2c(c1)C(=O)OC21CCN(C(=O)c2ccc(Cl)c(Cl)c2)CC1` [Example 9, 1′-(3,4-Dichlorobenzoyl)-5-methoxy-3H-spiro[2-benzofuran-1,4′-piperidin]-3-one], the Ki was 47.9 nM.

On to `O=C1OC2(CCN(C(=O)c3ccc(Cl)c(Cl)c3)CC2)c2ccc(F)cc21` [Example 11, 1′-(3,4-Dichlorobenzoyl)-5-fluoro-3H-spiro[2-benzofuran-1,4′-piperidin]-3-one], for which the Ki was 29.5 nM.

With `O=C1OC2(CCN(C(=O)c3ccc(Cl)c(Cl)c3)CC2)c2cc(OCCO)ccc21` [Example 12, 1′-(3,4-Dichlorobenzoyl)-6-(2-hydroxyethoxy)-3H-spiro[2-benzofuran-1,4′-piperidin]-3-one], the Ki is 21.9 nM.

In the case of `CC(C)(C)c1ccc(C(=O)N2CCC3(CC2)OCc2ccccc23)cc1` [Example 25, 1′-(4-tert-Butylbenzoyl)-3H-spiro[2-benzofuran-1,4′-piperidine]], the Ki was 63.1 nM.

With `COc1cc(C(=O)N2CCC3(CC2)OCc2ccccc23)c2[nH]ccc2c1` [Example 27, 1′-[(5-Methoxy-1H-indol-7-yl)carbonyl]-3H-spiro[2-benzofuran-1,4′-piperidine]], the Ki was 50.1 nM.

Regarding `O=C(c1ccc2ccccc2c1)N1CCC2(CC1)C(=O)Nc1ccc(Br)cc12` [Example 33, 5-Bromo-1′-(2-naphthoyl)spiro[indole-3,4′-piperidin]-2(1H)-one], the Ki was 110 nM.

Turning to `O=C(c1ccc2ccccc2c1)N1CCC2(C=Cc3ccccc32)CC1` [Example 36, 1′-(2-Naphthoyl)spiro[indene-1,4′-piperidine]], the Ki was 89.1 nM.

On to `O=C(c1ccc(Cl)c(Cl)c1)N1CCC2(CCc3ccccc32)CC1` [Example 42, 1′-(3,4-Dichlorobenzoyl)-2,3-dihydrospiro[indene-1,4′-piperidine]], for which the Ki was 112 nM.
